Where two headings read alike, the source gives them in different places.
How the values were obtained:
Format in all cases: cell-based
[1] = tested on: Escherichia coli M-17; assay: Sensitivity of strains: suppression of growth; settings: Compound (1) 1.0%; antibiotics disc method
[2] = tested on: Bacillus sp. B-575; assay: Sensitivity of strains: suppression of growth; note: key: + sensitive strains; + moderately sensitive strains; − stable strains
[3] = tested on: γ-hemolytic streptococcus B-672; assay: Sensitivity of strains: suppression of growth; settings: Compound (1) 1.0%; antibiotics disc method
[4] = tested on: Klebsiella pneumoniae M-248; assay: Sensitivity of strains: suppression of growth; settings: Compound (1) 1.0%; antibiotics disc method
[5] = tested on: Acinetobacter B-676; assay: Sensitivity of strains: suppression of growth; settings: Compound (1) 1.0%; antibiotics disc method
[6] = tested on: Neisseria meningitidis M-6231; assay: Sensitivity of strains: suppression of growth; settings: Compound (1) 1.0%; antibiotics disc method
[7] = tested on: Alkaligenes sp. B-689; assay: Sensitivity of strains: suppression of growth; settings: Compound (1) 1.0%; antibiotics disc method
[8] = tested on: Salmonella typhimurium M-727; assay: Sensitivity of strains: suppression of growth; settings: Compound (1) 1.0%; antibiotics disc method
[9] = tested on: Pseudomonas aeruginosa B-601; assay: Sensitivity of strains: suppression of growth; settings: Compound (1) 1.0%; antibiotics disc method
[10] = tested on: Escherichia coli B-65; assay: Sensitivity of strains: suppression of growth; settings: Compound (1) 1.0%; antibiotics disc method
[11] = tested on: Klebsiella pneumoniae M-A21; assay: Sensitivity of strains: suppression of growth; settings: Compound (1) 1.0%; antibiotics disc method
[12] = tested on: Neisseria meningitidis M-A72; assay: Sensitivity of strains: suppression of growth; settings: Compound (1) 1.0%; antibiotics disc method
[13] = tested on: Enterobacter aerogenes B-687; assay: Sensitivity of strains: suppression of growth; settings: Compound (1) 1.0%; antibiotics disc method
[14] = tested on: Staphylococcus aureus B-674; assay: Sensitivity of strains: suppression of growth; settings: Compound (1) 1.0%; antibiotics disc method
[15] = tested on: Enterobacter aerogenes B-679; assay: Sensitivity of strains: suppression of growth; settings: Compound (1) 1.0%; antibiotics disc method
[16] = tested on: Staphylococcus aureus M-12159; assay: Sensitivity of strains: suppression of growth; settings: Compound (1) 1.0%; antibiotics disc method
[17] = tested on: Escherichia coli B-683; assay: Sensitivity of strains: suppression of growth; settings: Compound (1) 1.0%; antibiotics disc method
[18] = tested on: Conditional pathogenic enterobacteria gram-negative aerobic bacilli; note: key: + sensitive strains; + moderately sensitive strains; − stable strains
[19] = tested on: Acinetobacter B-677; assay: Sensitivity of strains: suppression of growth; settings: Compound (1) 1.0%; antibiotics disc method
[20] = tested on: Citrobacter diversus B-678; assay: Sensitivity of strains: suppression of growth; settings: Compound (1) 1.0%; antibiotics disc method
[21] = tested on: Staphylococcus epidermidis BK-30; assay: Sensitivity of strains: suppression of growth; settings: Compound (1) 1.0%; antibiotics disc method
[22] = tested on: Staphylococci epidermidis D-513; assay: Sensitivity of strains: suppression of growth; settings: Compound (1) 1.0%; antibiotics disc method
[23] = tested on: Staphylococcus aureus M-209; assay: Sensitivity of strains: suppression of growth; settings: Compound (1) 1.0%; antibiotics disc method
[24] = tested on: Yersinia pseudotuberculosis; settings: Compound (1) 1.0%; antibiotics disc method
[25] = tested on: Alkaligenes sp. B-667; assay: Sensitivity of strains: suppression of growth; settings: Compound (1) 1.0%; antibiotics disc method
[26] = tested on: Acinetobacter B-681; assay: Sensitivity of strains: suppression of growth; settings: Compound (1) 1.0%; antibiotics disc method
[27] = tested on: Staphylococcus aureus B-685; assay: Sensitivity of strains: suppression of growth; settings: Compound (1) 1.0%; antibiotics disc method
[28] = tested on: β-hemolytic streptococcus B-624; assay: Sensitivity of strains: suppression of growth; settings: Compound (1) 1.0%; antibiotics disc method
[29] = tested on: Corynebacterium diphtheriae B-670; assay: Sensitivity of strains: suppression of growth; settings: Compound (1) 1.0%; antibiotics disc method
[30] = tested on: Shigella flexneri M-2A6907; assay: Sensitivity of strains: suppression of growth; settings: Compound (1) 1.0%; antibiotics disc method
[31] = tested on: Salmonella paratyphi M-16469; assay: Sensitivity of strains: suppression of growth; settings: Compound (1) 1.0%; antibiotics disc method
[32] = tested on: Shigella sonnei B-720; assay: Sensitivity of strains: suppression of growth; settings: Compound (1) 1.0%; antibiotics disc method

Compound	Suppression of Growth (+/−) [1]	Suppression of Growth (+/−) [3]	Suppression of Growth (+/−) [4]	Suppression of Growth (+/−) [5]	Suppression of Growth (+/−) [6]	Suppression of Growth (+/−) [7]	Suppression of Growth (+/−) [9]	Suppression of Growth (+/−) [10]	Suppression of Growth (+/−) [11]	Suppression of Growth (+/−) [12]	Suppression of Growth (+/−) [13]	Suppression of Growth (+/−) [14]	Suppression of Growth (+/−) [15]	Suppression of Growth (+/−) [16]	Suppression of Growth (+/−) [17]	Suppression of Growth (+/−) [21]	Suppression of Growth (+/−) [22]	Suppression of Growth (+/−) [23]	Suppression of Growth (+/−) [24]	Suppression of Growth (+/−) [25]	also measured
CC1(C)S[C@@H]2[C@H](NC(=O)[C@H](N)c3ccccc3)C(=O)N2[C@H]1C(=O)O [Antibiotic 2, ampicillin]	+	+	−	−	−	−	+	+	−	−	−	−	−	−	+	+	+	−	−	−	Suppression of Growth (+/−) [2]: −; Suppression of Growth (+/−) [8]: −; Suppression of Growth (+/−) [18]: −; Suppression of Growth (+/−) [19]: −; Suppression of Growth (+/−) [20]: +; Suppression of Growth (+/−) [26]: −; Suppression of Growth (+/−) [27]: −; Suppression of Growth (+/−) [28]: +
CC1(C)S[C@@H]2[C@H](NC(=O)C(C(=O)O)c3ccccc3)C(=O)N2[C@H]1C(=O)O (stereo partly drawn) [Antibiotic 4, carbenicillin]	+	−	−	−	−	−	+	+	−	−	−	−	−	+	+	+	+	+	−	−	Suppression of Growth (+/−) ([2]; Compound (1) 1.0%, antibiotics disc method): −; Suppression of Growth (+/−) [18]: −; Suppression of Growth (+/−) [19]: −; Suppression of Growth (+/−) [20]: −; Suppression of Growth (+/−) [29]: −; Suppression of Growth (+/−) [26]: −; Suppression of Growth (+/−) [27]: +; Suppression of Growth (+/−) [28]: +
NC[C@H]1O[C@H](O[C@H]2[C@H](O)[C@@H](O[C@H]3O[C@H](CO)[C@@H](O)[C@H](N)[C@H]3O)[C@H](N)C[C@@H]2N)[C@H](O)[C@@H](O)[C@@H]1O [Antibiotic 5, kanamycin]	+	−	−	−	−	+	+	+	−	−	−	−	−	+	+	−	−	+	−	−	Suppression of Growth (+/−) [18]: −; Suppression of Growth (+/−) [19]: −; Suppression of Growth (+/−) [20]: +; Suppression of Growth (+/−) [29]: −; Suppression of Growth (+/−) [26]: −; Suppression of Growth (+/−) [27]: +; Suppression of Growth (+/−) [28]: −
O=C(N[C@H](CO)[C@H](O)c1ccc([N+](=O)[O-])cc1)C(Cl)Cl [Antibiotic 7, levomicethin]	+	−	−	−	−	+	+	+	−	−	−	+	−	−	+	−	−	−	−	−	Suppression of Growth (+/−) [2]: +; Suppression of Growth (+/−) [8]: −; Suppression of Growth (+/−) [18]: −; Suppression of Growth (+/−) [19]: −; Suppression of Growth (+/−) [20]: −; Suppression of Growth (+/−) [30]: +; Suppression of Growth (+/−) [26]: −; Suppression of Growth (+/−) [27]: −; Suppression of Growth (+/−) [28]: −
CN(C)[C@@H]1C(=O)C(C(N)=O)=C(O)[C@@]2(O)C(=O)C3=C(O)c4c(O)cccc4[C@@](C)(O)[C@H]3C[C@@H]12 [Antibiotic 13, tetracycline]	+	−	−	−	−	−	+	+	−	−	−	+	−	−	+	−	−	−	−	−	Suppression of Growth (+/−) [2]: +; Suppression of Growth (+/−) [19]: −; Suppression of Growth (+/−) [29]: +; Suppression of Growth (+/−) [26]: −; Suppression of Growth (+/−) [27]: −; Suppression of Growth (+/−) [28]: −
polymixin [Antibiotic 9]	+	−	−	−	−	−	+	+	−	−	+	−	+	−	+	−	−	+	−	+	Suppression of Growth (+/−) [2]: −; Suppression of Growth (+/−) [31]: −; Suppression of Growth (+/−) [18]: −; Suppression of Growth (+/−) [19]: −; Suppression of Growth (+/−) [29]: −; Suppression of Growth (+/−) [26]: −; Suppression of Growth (+/−) [27]: −; Suppression of Growth (+/−) [28]: −
ristomycin [Antibiotic 11]	−	+	−	−	−	−	−	+	−	−	−	−	−	+	−	+	+	+	−	−	Suppression of Growth (+/−) [32]: −; Suppression of Growth (+/−) [8]: −; Suppression of Growth (+/−) [31]: −; Suppression of Growth (+/−) [20]: −; Suppression of Growth (+/−) [30]: −; Suppression of Growth (+/−) [29]: +; Suppression of Growth (+/−) [26]: −; Suppression of Growth (+/−) [27]: +; Suppression of Growth (+/−) [28]: +

From patent US20150258059A1, “ANTIMICROBIAL AND RADIOPROTECTIVE COMPOUNDS” (BioDiem, Ltd, priority 2001, published 2015)
